Activity calls are given as the source filed them. The calls are words filed in the database; no cut-off is given here.
What was measured:
[1] = biological target: T1, Vascular endothelial growth factor receptor 2 (Homo sapiens, UniProt P35968); assay: Inhibition of VEGFR2 expressed HEK293 cells; format: cell-based
[2] = biological target: T1, Vascular endothelial growth factor receptor 2; assay: Inhibition of VEGFR-2 kinase assessed as phosphorylated level of pGAT-biotin peptide preincubated for 5 to 10 mins before addition of substrate measured after 2 hrs by HTRF assay
[3] = Inhibition of bovine tubulin polymerization after 30 mins by turbidity assay; design: species or system Bos taurus
A-431 = assay: cells; details: Homo sapiens, A-431, 24 h
Description: Cell cycle arrest in human A431 cells assessed as accumulation at G2/M phase after 24 hrs using propidium iodide staining by cell sorting method

[4] = biological target: Serine/threonine-protein kinase PLK1 (Homo sapiens) (UniProt P53350); assay: Inhibition of polo-like kinase 1
[5] = biological target: T2, Aurora kinase A (Homo sapiens) (UniProt O14965); assay: Inhibition of Aurora A kinase
T2 sequence (whole entry): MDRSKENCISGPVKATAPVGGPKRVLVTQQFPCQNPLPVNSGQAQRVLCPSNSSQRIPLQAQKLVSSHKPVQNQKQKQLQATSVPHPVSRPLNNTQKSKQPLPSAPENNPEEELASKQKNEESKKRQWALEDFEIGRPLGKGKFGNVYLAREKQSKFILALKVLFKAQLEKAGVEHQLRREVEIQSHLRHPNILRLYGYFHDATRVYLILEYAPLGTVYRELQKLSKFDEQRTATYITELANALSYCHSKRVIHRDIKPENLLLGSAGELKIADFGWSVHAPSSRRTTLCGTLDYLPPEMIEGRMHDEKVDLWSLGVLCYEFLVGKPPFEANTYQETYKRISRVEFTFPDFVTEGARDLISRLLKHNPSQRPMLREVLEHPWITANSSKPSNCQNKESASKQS

[6] = biological target: Cyclin-dependent kinase 1 (Homo sapiens) (UniProt P06493); assay: Inhibition of CDK1
Mus musculus [7] = assay: Toxicity in mouse assessed as abnormal pathology at 100 mg/kg, po administered once a week; format: organism-based; design: dose 100 mg/kg, route oral; details: in vivo
Mus musculus [8] = assay: Toxicity in mouse assessed as discomfort signs at 100 mg/kg, po administered once a week; format: organism-based; design: dose 100 mg/kg, route oral; details: in vivo
Mus musculus [9] = assay: Toxicity in mouse assessed as body weight change at 100 mg/kg, po administered once a week; format: organism-based; design: dose 100 mg/kg, route oral; details: in vivo
[10] = Antitumor activity against human MDA-MB-435-LM2 cells xenografted in mouse assessed as tumor size at 100 mg/kg, po administered once a week measured on day 26 relative to control; format: functional
Mus musculus [11] = assay: Toxicity in mouse assessed as white blood cell depletion at 100 mg/kg administered once a week; format: organism-based; design: dose 100 mg/kg; details: in vivo
Mus musculus [12] = assay: Toxicity in mouse assessed as neuropathy at 100 mg/kg administered once a week; format: organism-based; design: dose 100 mg/kg; details: in vivo
[13] = Toxicity in po dosed mouse; format: organism-based; details: in vivo
Mus musculus [14] = assay: Toxicity in mouse assessed as inflamed intestine at 100 mg/kg, po administered once a week; format: organism-based; design: dose 100 mg/kg, route oral; details: in vivo
Mus musculus [15] = assay: Toxicity in mouse assessed as enlarged intestine at 100 mg/kg, po administered once a week; format: organism-based; design: dose 100 mg/kg, route oral; details: in vivo
Mus musculus [16] = assay: Toxicity in mouse assessed as distended stomach at 100 mg/kg, po administered once a week; format: organism-based; design: dose 100 mg/kg, route oral; details: in vivo
Mus musculus [17] = assay: Toxicity in mouse assessed as moribund at 100 mg/kg, po administered once a week measured on day 26; format: organism-based; design: dose 100 mg/kg, route oral; details: in vivo

T1 sequence (P35968 whole entry): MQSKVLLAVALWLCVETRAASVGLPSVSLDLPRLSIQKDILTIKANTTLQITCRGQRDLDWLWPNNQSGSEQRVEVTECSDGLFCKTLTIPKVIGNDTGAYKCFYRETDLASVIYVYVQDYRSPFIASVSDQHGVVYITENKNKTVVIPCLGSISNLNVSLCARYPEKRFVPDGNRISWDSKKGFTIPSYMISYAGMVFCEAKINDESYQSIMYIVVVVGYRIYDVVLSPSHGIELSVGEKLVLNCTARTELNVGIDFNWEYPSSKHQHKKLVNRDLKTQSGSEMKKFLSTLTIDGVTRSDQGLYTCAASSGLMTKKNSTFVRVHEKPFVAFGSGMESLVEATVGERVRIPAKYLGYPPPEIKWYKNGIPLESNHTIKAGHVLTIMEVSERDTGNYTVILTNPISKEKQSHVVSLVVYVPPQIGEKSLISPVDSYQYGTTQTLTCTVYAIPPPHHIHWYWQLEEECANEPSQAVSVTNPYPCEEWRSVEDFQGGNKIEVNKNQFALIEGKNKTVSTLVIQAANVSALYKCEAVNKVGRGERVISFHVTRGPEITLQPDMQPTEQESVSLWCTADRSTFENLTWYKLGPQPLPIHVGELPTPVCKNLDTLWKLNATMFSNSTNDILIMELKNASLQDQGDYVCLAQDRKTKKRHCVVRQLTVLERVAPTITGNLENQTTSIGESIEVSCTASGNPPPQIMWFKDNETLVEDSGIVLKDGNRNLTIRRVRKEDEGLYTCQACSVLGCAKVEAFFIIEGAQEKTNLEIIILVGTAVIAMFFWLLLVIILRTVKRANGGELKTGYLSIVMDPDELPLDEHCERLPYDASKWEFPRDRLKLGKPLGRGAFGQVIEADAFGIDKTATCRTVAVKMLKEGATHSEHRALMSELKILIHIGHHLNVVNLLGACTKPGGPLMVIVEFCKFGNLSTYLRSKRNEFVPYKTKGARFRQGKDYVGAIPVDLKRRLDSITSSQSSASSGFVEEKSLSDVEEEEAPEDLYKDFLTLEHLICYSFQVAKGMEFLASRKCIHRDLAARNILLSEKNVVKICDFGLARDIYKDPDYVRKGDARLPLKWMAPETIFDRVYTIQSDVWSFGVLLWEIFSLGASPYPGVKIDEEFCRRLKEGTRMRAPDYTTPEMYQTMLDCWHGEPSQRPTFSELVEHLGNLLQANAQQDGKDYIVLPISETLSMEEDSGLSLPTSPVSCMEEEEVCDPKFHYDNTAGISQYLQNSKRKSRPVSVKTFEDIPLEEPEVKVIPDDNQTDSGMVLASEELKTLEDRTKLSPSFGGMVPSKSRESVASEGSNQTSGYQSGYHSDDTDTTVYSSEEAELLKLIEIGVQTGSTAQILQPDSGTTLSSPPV
Cyclin-dependent kinase 1 (Homo sapiens), sequence (P06493 whole entry, looked up): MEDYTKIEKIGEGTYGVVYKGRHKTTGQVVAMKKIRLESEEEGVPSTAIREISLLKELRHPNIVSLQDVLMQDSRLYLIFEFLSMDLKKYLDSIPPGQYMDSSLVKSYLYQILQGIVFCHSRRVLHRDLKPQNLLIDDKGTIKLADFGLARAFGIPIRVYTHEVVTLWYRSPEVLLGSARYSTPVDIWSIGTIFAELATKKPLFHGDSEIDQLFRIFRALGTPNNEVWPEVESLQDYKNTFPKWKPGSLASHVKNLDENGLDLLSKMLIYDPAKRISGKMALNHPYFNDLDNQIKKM
Serine/threonine-protein kinase PLK1 (Homo sapiens), sequence (P53350 whole entry): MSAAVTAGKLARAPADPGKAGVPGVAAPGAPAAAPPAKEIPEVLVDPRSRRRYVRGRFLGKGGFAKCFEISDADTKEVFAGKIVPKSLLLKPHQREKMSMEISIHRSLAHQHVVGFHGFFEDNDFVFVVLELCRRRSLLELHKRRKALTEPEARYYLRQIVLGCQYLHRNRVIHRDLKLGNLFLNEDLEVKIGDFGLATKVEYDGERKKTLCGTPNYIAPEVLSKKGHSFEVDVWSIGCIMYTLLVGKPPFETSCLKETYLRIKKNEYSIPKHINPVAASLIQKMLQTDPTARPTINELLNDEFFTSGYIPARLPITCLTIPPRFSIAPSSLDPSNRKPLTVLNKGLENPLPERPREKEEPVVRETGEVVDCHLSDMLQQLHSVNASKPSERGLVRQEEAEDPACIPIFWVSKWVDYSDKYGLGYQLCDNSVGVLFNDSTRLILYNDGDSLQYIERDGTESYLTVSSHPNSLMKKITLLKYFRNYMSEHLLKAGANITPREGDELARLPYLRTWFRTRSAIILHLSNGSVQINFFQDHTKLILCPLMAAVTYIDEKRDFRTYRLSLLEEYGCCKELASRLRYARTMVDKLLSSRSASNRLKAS

SMILES | IC50 [1] [µM] | IC50 [2] [µM] | IC50 [3] [µM] | EC50 (A-431) [µM] | further results
c1ccc(-c2nnc(Nc3ccc4c(c3)OCCO4)[nH]2)c(NCc2cnc[nH]2)c1 | > 10 | 4.6 | > 10 | > 10 | –
c1ccc(-c2nnc(Nc3ccc4c(c3)OCO4)o2)c(NCc2ccncc2)c1 | > 10 | 0.83 | 0.69 | 0.62 | –
c1ccc(-c2nnc(Nc3ccc4c(c3)OCCO4)[nH]2)c(NCc2ccncc2)c1 | > 10 | 5.1 | 8.1 | 0.049 | –
c1ccc(CNc2ncccc2-c2nnc(Nc3ccc4c(c3)OCCO4)o2)nc1 | > 10 | > 10 | 1.9 | – | –
FC(F)(F)c1cccc(-c2nnc(-c3cccnc3NCc3ccncc3)[nH]2)c1 | 1 | 1.1 | > 10 | > 10 | –
FC1(F)Oc2ccc(Nc3nnc(-c4cccnc4NCc4ccncc4)o3)cc2O1 | > 10 | 3.16 | 3.9 | > 10 | –
c1cnc(NCc2ccc3c(c2)OCO3)c(-c2nnc(Nc3ccc4c(c3)OCCO4)o2)c1 | > 10 | 2.6 | 0.71 | – | –
FC(F)(F)c1cccc(-c2nnc(-c3cccnc3NCc3ccncc3)o2)c1 | > 10 | 2.5 | > 10 | > 10 | –
c1ccc(-c2nnc(Nc3ccc4c(c3)OCCO4)[nH]2)c(NCc2ccc3[nH]ncc3c2)c1 | 7.3 | 3.1 | > 10 | > 10 | –
c1ccc(-c2nnc(Nc3ccc4c(c3)OCCO4)[nH]2)c(NCc2ccc3ncccc3c2)c1 | > 10 | > 10 | > 10 | > 10 | –
c1cnc(NCc2ccc3ncccc3c2)c(-c2nnc(Nc3ccc4c(c3)OCCO4)o2)c1 | 0.22 | 0.3 | 1.45 | 0.018 | inhibition [4]: Active; inhibition [5]: Active; inhibition [6]: Active
c1cnc(NCc2cnc[nH]2)c(-c2nnc(Nc3ccc4c(c3)OCCO4)o2)c1 | 0.83 | 0.16 | 1.5 | 0.01 | –
c1cncc(CNc2ncccc2-c2nnc(Nc3ccc4c(c3)OCCO4)o2)c1 | > 10 | > 10 | 0.7 | – | –
c1ccc(-c2nnc(Nc3ccc4c(c3)OCCO4)o2)c(NCc2ccncc2)c1 | 0.11 | 0.21 | 1.09 | 0.009 | inhibition [4]: Active; inhibition [5]: Active; inhibition [6]: Active; Activity (Mus musculus [7]): Toxic; Activity (Mus musculus [8]): Toxic; Activity (Mus musculus [9]): 3.1%; Activity [10]: 28%; Activity (Mus musculus [11]): Non-toxic; Activity (Mus musculus [12]): Non-toxic; MTD [13]: 100 mg/kg
c1cnc(NCc2ccc3[nH]ncc3c2)c(-c2nnc(Nc3ccc4c(c3)OCCO4)o2)c1 | > 10 | 1.4 | 1.25 | 0.034 | –
c1cncc(CNc2ccccc2-c2nnc(Nc3ccc4c(c3)OCCO4)[nH]2)c1 | 2.8 | 3.2 | > 10 | > 10 | –
CS(=O)(=O)c1ccc(-c2nnc(-c3cccnc3NCC3COCCO3)[nH]2)cc1 (stereo unspecified) | > 10 | 4.5 | 6.6 | > 10 | –
CC(=O)O[C@H]1C(=O)[C@@]2(C)[C@H]([C@H](OC(=O)c3ccccc3)[C@]3(O)C[C@H](OC(=O)[C@H](O)[C@@H](NC(=O)c4ccccc4)c4ccccc4)C(C)=C1C3(C)C)[C@]1(OC(C)=O)CO[C@@H]1C[C@@H]2O [PACLITAXEL] | – | – | – | – | Activity (Mus musculus [14]): Toxic; Activity (Mus musculus [15]): Toxic; Activity (Mus musculus [16]): Toxic; Activity (Mus musculus [9]): 2.8%; Activity (Mus musculus [17]): Toxic; Activity [10]: 78%
c1cnc(NCc2ccc3c(c2)OCO3)c(-c2nnc(Nc3ccc4c(c3)OCO4)o2)c1 | > 10 | > 10 | 2.5 | 0.52 | –

Further lines, with some results ahead:

IC50 [1] [µM] | IC50 [2] [µM] | IC50 [3] [µM] | EC50 (A-431) [µM] | SMILES | further results
> 10 | 3.41 | 1.7 | > 10 | c1cncc(CCNc2ncccc2-c2nnc(Nc3ccc4c(c3)OCO4)o2)c1 | –
> 10 | > 10 | > 10 | > 10 | c1cnc(NCCc2ccncc2)c(-c2nnc(Nc3ccc4c(c3)OCO4)o2)c1 | –
> 10 | > 10 | 8.8 | – | c1cncc(CNc2ncccc2-c2nnc(Nc3ccc4c(c3)OCO4)o2)c1 | –
> 10 | > 10 | > 10 | > 10 | c1cncc(CCNc2ncccc2-c2nnc(Nc3ccc4c(c3)OCCO4)o2)c1 | –
> 10 | 1.89 | 1 | – | c1cnc(NCc2ccncc2)c(-c2nnc(Nc3ccc4c(c3)OCO4)o2)c1 | –
> 10 | > 10 | 1.7 | – | c1ccc(CNc2ncccc2-c2nnc(Nc3ccc4c(c3)OCO4)o2)nc1 | –
1 | 0.17 | 0.5 | – | c1cnc(NCc2ccncc2)c(-c2nnc(Nc3ccc4c(c3)OCCO4)o2)c1 | –
> 10 | > 10 | > 10 | > 10 | c1cnc(NCCc2ccncc2)c(-c2nnc(Nc3ccc4c(c3)OCCO4)o2)c1 | –
